According to PubChem BioAssay AID1919002 (Molecular Pharmacology Branch, DTP, NCI, 2023):
pIC50: −log10 of the molar value. “And” between values parts separate entries of the source, which are not always exact repeats. Equal entries are not always repeated. Values belong to the molecule of their own block, whether it stands above or below them.

Tested on: 743489-274-T-PDC complex spheroid growth
Assay: Anticancer human tumor 743489-274-T-PDC patient-derived renal cell carcinoma cell line growth inhibition [AhR]
Settings: for viability, T/C: stronger effect = lower value
How it was run: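 Spheroids combined tumor cells with HUVEC endothelial cells and human MSCs as stroma. AhR antagonists were paired with standard or investigational drugs, each dosed in half-log steps down from near clinical Cmax, or from 10 microM where Cmax was unknown.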

[1] = curve of first compound, second compound 0.1 µM
[2] = curve of first compound, second compound 0.316 µM
[3] = curve of first compound, second compound 1 µM
[4] = curve of first compound, second compound 3.16 µM
[5] = curve of first compound, second compound 10 µM
[6] = second compound 0.1 µM, first compound 0.0316 µM
[7] = second compound 0.1 µM, first compound 0.1 µM
[8] = second compound 0.1 µM, first compound 0.316 µM
[9] = second compound 0.1 µM, first compound 1 µM
[10] = second compound 0.316 µM, first compound 0.0316 µM
[11] = second compound 0.316 µM, first compound 0.1 µM
[12] = second compound 0.316 µM, first compound 0.316 µM
[13] = second compound 0.316 µM, first compound 1 µM
[14] = second compound 1 µM, first compound 0.0316 µM
[15] = second compound 1 µM, first compound 0.1 µM
[16] = second compound 1 µM, first compound 0.316 µM
[17] = second compound 1 µM, first compound 1 µM
[18] = second compound 3.16 µM, first compound 0.0316 µM
[19] = second compound 3.16 µM, first compound 0.1 µM
[20] = second compound 3.16 µM, first compound 0.316 µM
[21] = second compound 3.16 µM, first compound 1 µM
[22] = second compound 10 µM, first compound 0.0316 µM
[23] = second compound 10 µM, first compound 0.1 µM
[24] = second compound 10 µM, first compound 0.316 µM
[25] = second compound 10 µM, first compound 1 µM
[26] = second compound 0.1 µM, first compound 3.16 µM
[27] = second compound 0.1 µM, first compound 10 µM
[28] = second compound 0.316 µM, first compound 3.16 µM
[29] = second compound 0.316 µM, first compound 10 µM
[30] = second compound 1 µM, first compound 3.16 µM
[31] = second compound 1 µM, first compound 10 µM
[32] = second compound 3.16 µM, first compound 3.16 µM
[33] = second compound 3.16 µM, first compound 10 µM
[34] = second compound 10 µM, first compound 3.16 µM
[35] = second compound 10 µM, first compound 10 µM
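Note: spheroids exposed to agents for 7 days before readout.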
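Throughout, for viability, T/C: 100% = DMSO vehicle control wells.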

- pIC50 [1]: < 6.00
- pIC50 [2]: < 6.00
- pIC50 [3]: < 6.00
- pIC50 [4]: < 6.00
- pIC50 [5]: < 6.00
SMILES: CC1COCCN1c1cc(-c2ccnn2C)c2ccnc(-c3ccn[nH]3)c2n1 (configuration not stated) + CC(CO)NC(=O)c1cc(-c2ccc(Cl)cc2)nn(-c2cnn(C)c2)c1=O
- viability, T/C (second compound 0.1 µM, first compound 0.00316 µM): 105%
- viability, T/C (second compound 0.1 µM, first compound 0.01 µM): 97.6%
- viability, T/C [6]: 99.9%
- viability, T/C [7]: 91.4%
- viability, T/C [8]: 99.2%
- viability, T/C [9]: 88.8%
- viability, T/C (second compound 0.316 µM, first compound 0.00316 µM): 92%
- viability, T/C (second compound 0.316 µM, first compound 0.01 µM): 97.7%
- viability, T/C [10]: 93.9%
- viability, T/C [11]: 97.2%
- viability, T/C [12]: 93.4%
- viability, T/C [13]: 71.5%
- viability, T/C (second compound 1 µM, first compound 0.00316 µM): 87.6%
- viability, T/C (second compound 1 µM, first compound 0.01 µM): 90%
- viability, T/C [14]: 93.4%
- viability, T/C [15]: 96.2%
- viability, T/C [16]: 88.9%
- viability, T/C [17]: 81.8%
- viability, T/C (second compound 3.16 µM, first compound 0.00316 µM): 112%
- viability, T/C (second compound 3.16 µM, first compound 0.01 µM): 91.7%
- viability, T/C [18]: 105%
- viability, T/C [19]: 92.2%
- viability, T/C [20]: 88.5%
- viability, T/C [21]: 65.6%
- viability, T/C (second compound 10 µM, first compound 0.00316 µM): 112%
- viability, T/C (second compound 10 µM, first compound 0.01 µM): 91.8%
- viability, T/C [22]: 92.1%
- viability, T/C [23]: 93.2%
- viability, T/C [24]: 95.9%
- viability, T/C [25]: 76.8%

- pIC50 (curve of compound): < 7.00
SMILES: Cn1ncnc1C1c2n[nH]c(=O)c3cc(F)cc(c23)NC1c1ccc(F)cc1 (configuration not stated)
- viability, T/C (compound 0.000316 µM): 100% and 101% and 102%
- viability, T/C (compound 0.001 µM): 105% and 111% and 108%
- viability, T/C (compound 0.00316 µM): 95.8% and 107% and 98.2%
- viability, T/C (compound 0.01 µM): 91.2% and 103% and 108%
- viability, T/C (compound 0.0316 µM): 97.2% and 95.4% and 95.6%
- viability, T/C (compound 0.1 µM): 103% and 94% and 99.3%

- pIC50 [1]: < 5.00
- pIC50 [2]: < 5.00
- pIC50 [3]: < 5.00
- pIC50 [4]: < 5.00
- pIC50 [5]: < 5.00
SMILES: NS(=O)(=O)OCC1CC(n2ccc3c(NC4CCc5ccccc54)ncnc32)CC1O (configuration not stated) + Cc1cncc(-c2nc(NCCc3c[nH]c4ccccc34)c3ncn(C(C)C)c3n2)c1
- viability, T/C [6]: 105%
- viability, T/C [7]: 98.2%
- viability, T/C [8]: 99.8%
- viability, T/C [9]: 112%
- viability, T/C [26]: 128%
- viability, T/C [27]: 154%
- viability, T/C [10]: 93.2%
- viability, T/C [11]: 92.7%
- viability, T/C [12]: 110%
- viability, T/C [13]: 125%
- viability, T/C [28]: 136%
- viability, T/C [29]: 139%
- viability, T/C [14]: 96.8%
- viability, T/C [15]: 98.7%
- viability, T/C [16]: 116%
- viability, T/C [17]: 133%
- viability, T/C [30]: 149%
- viability, T/C [31]: 134%
- viability, T/C [18]: 119%
- viability, T/C [19]: 114%
- viability, T/C [20]: 119%
- viability, T/C [21]: 136%
- viability, T/C [32]: 152%
- viability, T/C [33]: 139%
- viability, T/C [22]: 114%
- viability, T/C [23]: 127%
- viability, T/C [24]: 106%
- viability, T/C [25]: 103%
- viability, T/C [34]: 118%
- viability, T/C [35]: 123%

- pIC50 [1]: 5.34
- pIC50 [2]: 5.58
- pIC50 [3]: 5.44
- pIC50 [4]: 5.58
- pIC50 [5]: 5.65
SMILES: Nc1ccccc1NC(=O)c1ccc(CNC(=O)OCc2cccnc2)cc1 + Cc1ccccc1N=Nc1ccc(NC(=O)c2ccnn2C)c(C)c1
- viability, T/C [6]: 101%
- viability, T/C [7]: 96.6%
- viability, T/C [8]: 95.9%
- viability, T/C [9]: 80.2%
- viability, T/C [26]: 63%
- viability, T/C [27]: 25.4%
- viability, T/C [10]: 99.9%
- viability, T/C [11]: 99.7%
- viability, T/C [12]: 84%
- viability, T/C [13]: 79.7%
- viability, T/C [28]: 42.7%
- viability, T/C [29]: 23.8%
- viability, T/C [14]: 89.8%
- viability, T/C [15]: 95%
- viability, T/C [16]: 88.2%
- viability, T/C [17]: 74.3%
- viability, T/C [30]: 54.7%
- viability, T/C [31]: 24.5%
- viability, T/C [18]: 93.3%
- viability, T/C [19]: 98%
- viability, T/C [20]: 88.3%
- viability, T/C [21]: 70%
- viability, T/C [32]: 47%
- viability, T/C [33]: 28.5%
- viability, T/C [22]: 86.9%
- viability, T/C [23]: 95.9%
- viability, T/C [24]: 88.4%
- viability, T/C [25]: 66.2%
- viability, T/C [34]: 44.4%
- viability, T/C [35]: 28.6%
